Measured values from publication PMC6437058 (mBio, 2019).

Molecular target: anthranilate synthase TrpE (Rv1609) (Mycobacterium tuberculosis, UniProt P9WFX3)
Experiment: biochemical

Chain of anthranilate synthase TrpE (Rv1609) (P9WFX3 whole entry): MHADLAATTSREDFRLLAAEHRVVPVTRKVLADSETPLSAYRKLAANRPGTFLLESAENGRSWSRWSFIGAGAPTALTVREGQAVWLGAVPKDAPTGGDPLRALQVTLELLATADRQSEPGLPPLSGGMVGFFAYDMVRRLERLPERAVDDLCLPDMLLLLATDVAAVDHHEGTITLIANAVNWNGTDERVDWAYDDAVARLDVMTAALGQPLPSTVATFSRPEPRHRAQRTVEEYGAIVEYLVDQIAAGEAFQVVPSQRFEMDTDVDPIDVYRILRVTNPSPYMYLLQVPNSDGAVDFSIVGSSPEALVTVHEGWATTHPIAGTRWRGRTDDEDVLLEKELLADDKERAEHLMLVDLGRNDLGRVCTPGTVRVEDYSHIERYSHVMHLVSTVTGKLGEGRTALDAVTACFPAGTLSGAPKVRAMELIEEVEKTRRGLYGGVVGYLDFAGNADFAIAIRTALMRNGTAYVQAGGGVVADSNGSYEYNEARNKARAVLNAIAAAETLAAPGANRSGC

Molecule `N[C@@H](Cc1c[nH]c2ccc(F)cc12)C(=O)O` [F-Trp, 5-fluoro-L-tryptophan] has an IC50 of 4.1 µM.
